Values quoted from earlier work as cited in patent US10662178B2, “Crystalline form of Olaparib” (Apotex Inc., priority 2018, dated 2020).

Conditions: CHMP Assessment Report EMEA/H/C/003726/0000

In the case of `O=C(c1cc(Cc2n[nH]c(=O)c3ccccc23)ccc1F)N1CCN(C(=O)C2CC2)CC1` [Olaparib, 4-[(3-{[4-(cyclopropylcarbonyl)-piperazin-1-yl]carbonyl}-4-fluorophenyl)methyl]phthalazin-1(2H)-one], the “Biopharmaceutics Classification System (BCS) class” value is listed as “Class IV” and the solubility (drug substance in the approved drug product LYNPARZA) is listed as “low solubility”.
